What was measured:
CRTH2 receptor = biological target: T1, CRTH2 receptor (Homo sapiens, UniProt Q9Y5Y4); experiment: calcium mobilization in cells that express CRTH2 receptor; assay type: cell-based; details: absence of test compound, Indo-1 fluorescence; read-out: EC50 of increased [Ca2+]i
T1 construct: Flag peptide (behind a 'prolac' signal peptide) (N); expressed in transfected cells
T1 sequence (Q9Y5Y4 1-395): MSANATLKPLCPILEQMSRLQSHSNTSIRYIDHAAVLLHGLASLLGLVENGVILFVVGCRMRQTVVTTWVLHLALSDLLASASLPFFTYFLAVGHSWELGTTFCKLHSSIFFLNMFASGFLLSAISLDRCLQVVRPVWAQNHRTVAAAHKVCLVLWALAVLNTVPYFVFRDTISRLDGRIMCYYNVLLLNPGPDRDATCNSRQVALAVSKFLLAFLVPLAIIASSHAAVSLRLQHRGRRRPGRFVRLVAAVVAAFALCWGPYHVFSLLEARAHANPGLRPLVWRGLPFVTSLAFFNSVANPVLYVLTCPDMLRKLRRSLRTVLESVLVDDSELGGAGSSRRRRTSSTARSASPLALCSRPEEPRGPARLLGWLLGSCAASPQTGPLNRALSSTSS
Experimental: The ratio of fluorescence produced by the calcium-bound dye to that produce by the unbound dye is used to estimate the intracellular calcium concentration. In an example method cells that express CRTH2 receptor are collected, and resuspended in fresh media at ˜2×10^5/ml the day before performing the calcium flux assay. Cells are incubated at 37° C. for not longer than 20-30 minutes, and then spun down and resuspended in 50 ml fresh PTI buffer (Hank's Buffer, pH 7.2-7.4; 10 mM Hepes; 1.6 mM CaCl2) containing Indo-1 AM, pre-warmed to 37° C., at a concentration of 10 million per ml. Cells are excited, and fluorescence is measured using a fluorimeter (Photon Technology Corporation, International). After the readout has stabilized, the time axis is reset, and PGD2 is added at a specific time point (e.g., 20 seconds). After response, the following reagents are added to the cuvette, to release and chelate total calcium, in the following order: 20 μl of 18% Triton X-100, 20 μl of 3M Tris, pH 8.5, and 20 μl of 0.5M EGTA, pH 8.5. The experiment is repeated in the presence and the absence of a test compound. […] Therefore, in the presence of an antagonist test compound, the EC50 would be expected to […].

CCI-induced pain in rats = details: literature; cited from earlier work
[1] = test system: Chronic Constriction Injury (CCI) rat model of neuropathic pain; details: literature; cited from earlier work
[2] = test system: Streptozocin (STZ)-induced diabetes neuropathy in the rat; experiment: STZ-induced static allodynia (von Frey hairs, PWT); assay type: in vivo; details: compound 25 mg/kg PO; gabapentin 100 mg/kg PO (positive control)
Experimental: (§1) Male Sprague Dawley rats weighing 150-400 g obtained from Charles River (Manston, Kent, UK.) were housed in groups of 3. All animals were kept under a 12 h light/dark cycle (lights on at 07 h 00 min) with food and water ad libitum. All experiments were carried out by an observer blind to the treatments and in accordance with the Home Office Animals (Scientific Procedures) Act 1986.
(§2) Diabetes was induced by a single intraperitoneal injection of streptozotocin (50 mg/kg) freshly dissolved in 0.9% sterile saline. Streptozotocin injection induces a reproducible mechanical allodynia within 3 weeks, lasting for at least 7 weeks (Chen and Pan, (Chen S R and Pan H L. Hypersensitivity of Spinothalamic Tract Neurons Associated With Diabetic Neuropathic Pain in Rats. J Neurophysiol 87: 2726-2733, 2002).
Animals were habituated to wire bottom test cages prior to the assessment of allodynia. Static allodynia was evaluated by application of von Frey hairs (Stoelting, Wood Dale, Ill., USA.) in ascending order of force (0.6, 1, 1.4, 2, 4, 6, 8, 10, 15 and 26 grams) to the plantar surface of hind paws. Each von Frey hair was applied to the paw for a maximum of 6 sec, or until a withdrawal response occurred. Once a withdrawal response to a von Frey hair was established, the paw was re-tested, starting with the filament below the one that produced a withdrawal, and subsequently with the remaining filaments in descending force sequence until no withdrawal occurred. The highest force of 26 g lifted the paw as well as eliciting a response, thus represented the cut off point. Each animal had both hind paws tested in this manner. The lowest amount of force required to elicit a response was recorded as paw withdrawal threshold (PWT) in grams. Static allodynia was defined as present if animals responded to a stimulus of, or less than, 4 g, which is innocuous in naive rats (Field M J, Bramwell S, Hughes J, Singh L. Detection of static and dynamic components of mechanical allodynia in rat models of neuropathic pain: are they signalled by distinct primary sensory neurones? Pain, 1999; 83:303-11).
(§3) All the experiments were conducted blind. Static allodynia was expressed as median [LQ; UQ] and analysed by Mann Whitney U test. Dynamic allodynia and thermal hyperalgesia were expressed as arithmetic mean±SEM and analysed by ANOVA.

[3] = test system: Streptozocin (STZ)-induced diabetes neuropathy in the rat; experiment: STZ-induced dynamic allodynia (cotton bud, PWL); assay type: in vivo; details: compound 25 mg/kg PO; gabapentin 100 mg/kg PO (positive control)
Experimental: as §1, §2
Dynamic allodynia was assessed by lightly stroking the plantar surface of the hind paw with a cotton bud. To avoid recording general motor activity, care was taken to perform this procedure in fully habituated rats that were not active. At least two measurements were taken at each time point, the mean of which represented the paw withdrawal latency (PWL). […] A pain withdrawal response was often accompanied with repeated flinching or licking of the paw. Dynamic allodynia was considered to be present if animals responded to the cotton stimulus within 8 sec of commencing stroking (Field et al, 1999).
as §3

[4] = test system: Streptozocin (STZ)-induced diabetes neuropathy in the rat; details: literature; cited from earlier work
[5] = test system: Streptozocin (STZ)-induced diabetes neuropathy in the rat; details: literature; cited from earlier work; remark: listed apart in the source
[6] = test system: Chronic Constriction Injury (CCI) rat model of neuropathic pain; details: literature; cited from earlier work; remark: listed apart in the source
[7] = test system: Carrageenan-induced thermal hyperalgesia (CITH) in the rat; experiment: Carrageenan-induced thermal hyperalgesia (CITH), rat plantar test; assay type: in vivo; details: 3 mg/kg SC
Experimental: as §1
Thermal hyperalgesia was assessed using the rat plantar test (Ugo Basile, Comerio, Italy), according to a method modified by Hargreaves et al. (1988). Briefly, rats were habituated to the apparatus that consisted of three individual Perspex boxes on a glass table. A mobile radiant heat source was located under the table and focused onto the desired paw. Paw withdrawal latencies (PWLs) were recorded three times for both hind paws of each animal, the mean of which represented baseline for left and right hind paws. The apparatus was calibrated to give a PWL of approximately 10 s in naïve rats. To prevent tissue damage of the plantar zone, a 22.5 sec cut-off was observed. Lambda carrageenan was injected intraplantarly (100 μl, 20 mg/ml) the right hind paw and baseline recordings of PWT were taken 2 hr post administration.
as §3

Row | SMILES | reversal of CCI-induced pain in rats (Schäfers 2004) (CCI-induced pain in rats) | dynamic allodynia in CCI rat model (Field et al 1999) [1] | dynamic allodynia in STZ rat model (Field et al 1999) [4] | static allodynia in STZ rat model (Field et al 1999) [5] | static allodynia in CCI rat model (Field et al 1999) [6] | other results
1 | CCCCC[C@H](O)/C=C/[C@H]1C(=O)C[C@H](O)[C@@H]1C/C=C\CCCC(=O)O [PGD2, Prostaglandin D2] | – | – | – | – | – | EC50 (CRTH2 receptor): 15 nM
2 | CC(C)Cc1ccc(C(C)C(=O)O)cc1 (centres unmarked) [Ibuprofen] | no significant effect | – | – | – | – | –
3 | NCC1(CC(=O)O)CCCCC1 [Gabapentin] | – | reverse both static and dynamic allodynia | reverse both static and dynamic allodynia | reverse both static and dynamic allodynia | reverse both static and dynamic allodynia | effect on maintenance of STZ-induced static allodynia [2]: complete reversal; effect on maintenance of STZ-induced dynamic allodynia [3]: complete reversal
4 | CN1CC[C@]23c4c5ccc(O)c4O[C@H]2[C@@H](O)C=C[C@H]3[C@H]1C5 [Morphine, reference compound] | – | not dynamic allodynia | – | – | reverses static | analgesic effect of positive control [7]: produced the expected analgesic effect; change of PWLs in both hindpaws ([7]; 30 min post dose): increased the PWLs in both hindpaws over the baseline value of naïve rats
5 | Cc1ccc(-c2cc(C(F)(F)F)nn2-c2ccc(S(N)(=O)=O)cc2)cc1 [Celebrex] | no significant effect | – | – | – | – | –
6 | CC(C)C[C@H](CN)CC(=O)O [Pregabalin] | – | reverse both static and dynamic allodynia | reverse both static and dynamic allodynia | reverse both static and dynamic allodynia | reverse both static and dynamic allodynia | –

— patent US20090170897A1, “Method of Treating Neuropathic Pain” (Pfizer, Inc., priority 2004, published 2009)
